Measurements published in ChEMBL document CHEMBL1127889 (Bioorg Med Chem Lett, 1994).

Experiments:
[1] = Selectivity ratio against ECE/NEP
Neprilysin = target: T1, Neprilysin (Rattus norvegicus, UniProt P07861); assay: Inhibitory activity against neutral endopeptidase (NEP)prepared from microsomal fractions of rat small intestine
T1 sequence (P07861 whole entry): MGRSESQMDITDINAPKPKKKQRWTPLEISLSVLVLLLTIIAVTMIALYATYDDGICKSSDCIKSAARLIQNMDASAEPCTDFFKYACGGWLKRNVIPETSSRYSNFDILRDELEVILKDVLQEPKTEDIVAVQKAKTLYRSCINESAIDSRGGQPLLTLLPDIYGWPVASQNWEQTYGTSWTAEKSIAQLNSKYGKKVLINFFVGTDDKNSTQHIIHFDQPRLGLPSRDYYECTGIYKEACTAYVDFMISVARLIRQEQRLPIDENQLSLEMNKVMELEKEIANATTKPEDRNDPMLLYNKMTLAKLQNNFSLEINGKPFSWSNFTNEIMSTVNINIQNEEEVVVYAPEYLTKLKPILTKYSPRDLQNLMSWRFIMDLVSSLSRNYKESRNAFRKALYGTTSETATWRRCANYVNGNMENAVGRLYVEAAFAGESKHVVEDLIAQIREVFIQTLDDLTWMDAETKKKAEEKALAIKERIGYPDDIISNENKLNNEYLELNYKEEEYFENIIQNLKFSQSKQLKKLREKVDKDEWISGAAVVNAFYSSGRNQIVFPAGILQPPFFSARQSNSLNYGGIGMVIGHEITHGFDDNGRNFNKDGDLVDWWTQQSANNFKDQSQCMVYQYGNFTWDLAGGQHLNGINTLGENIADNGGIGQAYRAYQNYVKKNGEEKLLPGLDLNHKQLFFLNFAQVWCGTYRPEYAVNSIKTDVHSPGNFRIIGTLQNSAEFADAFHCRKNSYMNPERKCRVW

[2] = target: T2, Endothelin-converting enzyme 1 (Bos taurus, UniProt P42891); assay: Inhibition of Endothelin-converting enzyme (ECE) from microsomal fractions of bovine cultured endothelial cells; assay type: cell-based, Endothelial cell
T2 sequence (P42891 whole entry): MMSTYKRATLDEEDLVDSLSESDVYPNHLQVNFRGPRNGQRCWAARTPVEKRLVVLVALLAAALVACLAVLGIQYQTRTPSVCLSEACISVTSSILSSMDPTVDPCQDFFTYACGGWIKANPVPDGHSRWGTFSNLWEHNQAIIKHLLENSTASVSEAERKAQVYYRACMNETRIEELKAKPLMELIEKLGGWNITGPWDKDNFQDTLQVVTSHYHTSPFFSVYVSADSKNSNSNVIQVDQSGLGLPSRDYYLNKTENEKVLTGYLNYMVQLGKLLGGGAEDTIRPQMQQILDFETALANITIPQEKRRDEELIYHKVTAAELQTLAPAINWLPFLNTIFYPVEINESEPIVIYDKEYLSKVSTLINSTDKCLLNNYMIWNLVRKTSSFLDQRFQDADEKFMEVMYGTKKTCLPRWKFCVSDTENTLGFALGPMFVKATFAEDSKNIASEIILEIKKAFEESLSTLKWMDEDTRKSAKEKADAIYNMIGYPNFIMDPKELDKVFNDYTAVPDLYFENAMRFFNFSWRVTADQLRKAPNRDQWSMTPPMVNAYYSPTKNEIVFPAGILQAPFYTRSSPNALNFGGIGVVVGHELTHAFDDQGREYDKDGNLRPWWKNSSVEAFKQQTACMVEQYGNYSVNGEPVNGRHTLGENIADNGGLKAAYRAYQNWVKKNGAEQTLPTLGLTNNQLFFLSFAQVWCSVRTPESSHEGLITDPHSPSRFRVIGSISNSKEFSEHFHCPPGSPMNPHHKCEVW

[3] = target: T3, Endothelin-converting enzyme 1 (Bos taurus) (UniProt P42891); assay: Inhibitory activity against Endothelin-converting enzyme (ECE) prepared from the microsomal fractions of bovine cultured endothelial cells at a concentration of 100 uM; assay type: cell-based; settings: Endothelial cell
T3 sequence (whole entry): T2 sequence (P42891 whole entry)

[4] = target: T3, Endothelin-converting enzyme 1 (Bos taurus); assay: Inhibitory activity against Endothelin converting enzyme (ECE) prepared from the microsomal fractions of bovine cultured endothelial cells at a concentration of 100 uM; assay type: cell-based; settings: Endothelial cell

SMILES | Ratio [1] | IC50 (Neprilysin) [nM] | IC50 [2] [nM] | inhibition [3] [%] | inhibition [4] [%]
CCCC(N[C@@H](CC(C)C)C(=O)N[C@@H](Cc1c[nH]c2ccccc12)C(=O)O)P(=O)(O)O (stereo partly specified) | 37 | 550 | 15000 | – | –
CC(C)[C@H](NP(=O)(O)O)C(=O)N[C@@H](CC(N)=O)C(=O)O | – | – | – | 14 | –
CCCC[C@H](NP(=O)(O)O)C(=O)N[C@@H](Cc1c[nH]c2ccccc12)C(=O)O | – | – | 1500 | – | –
CC(C)C[C@H](NC(CCc1ccc(O)cc1)P(=O)(O)O)C(=O)N[C@@H](Cc1c[nH]c2ccccc12)C(=O)O (stereo partly specified) | 43 | 130 | 3000 | 42 | –
CC(C)C[C@H](NC(CCc1c[nH]c2ccccc12)P(=O)(O)O)C(=O)N[C@@H](Cc1c[nH]c2ccccc12)C(=O)O (stereo partly specified) | 290 | 560 | 1900 | – | –
CC(C)C[C@H](NCP(=O)(O)O)C(=O)N[C@@H](Cc1c[nH]c2ccccc12)C(=O)O | 7.1 | 24 | 3400 | – | –
CC(C)C[C@H](NP(=O)(O)OC1O[C@@H](C)[C@H](O)[C@@H](O)[C@H]1O)C(=O)N[C@@H](Cc1c[nH]c2ccccc12)C(=O)O (single isomer, unassigned) [PHOSPHORAMIDON] | – | 4.2 | – | – | –
CC(C)C[C@H](NP(=O)(O)O)C(=O)N[C@@H](Cc1c[nH]c2ccccc12)C(=O)O | – | – | 960 | – | –
CC(C)C[C@H](NC(CCCc1ccccc1)P(=O)(O)O)C(=O)N[C@@H](Cc1c[nH]c2ccccc12)C(=O)O (stereo partly specified) | 150 | 1100 | 7100 | 38 | –

More lines, now with the values ahead:

Ratio [1] | IC50 (Neprilysin) [nM] | IC50 [2] [nM] | inhibition [3] [%] | inhibition [4] [%] | SMILES
540 | 140 | 260 | – | 31 | CC(C)C[C@H](NC(CCc1cccc2ccccc12)P(=O)(O)O)C(=O)N[C@@H](Cc1c[nH]c2ccccc12)C(=O)O (stereo partly specified)
– | – | 2800 | – | – | CC[C@@H](C)[C@H](NP(=O)(O)O)C(=O)N[C@@H](Cc1c[nH]c2ccccc12)C(=O)O
120 | 130 | 1100 | 33 | – | CC(C)C[C@H](NC(CCc1ccccc1)P(=O)(O)O)C(=O)N[C@@H](Cc1c[nH]c2ccccc12)C(=O)O (stereo partly specified)
– | – | 7400 | – | – | CC(C)C[C@H](NP(=O)(O)O)C(=O)N[C@@H](Cc1cccc2ccccc12)C(=O)O
